Experimental data: patent US9526717B2, “Composition for treating immune diseases containing daurinol compound as active ingredient” (THE CATHOLIC UNIVERSITY OF KOREA INDUSTRY-ACADEMIC …, priority 2013, dated 2016)

How the values were obtained:
[1] = system: mouse with induced inflammatory bowel disease (IBD); experiment: Antibodies expressed in the sera of IBD animal model; type: in vivo; details: IBD mice treated with daurinol
Description: For the confirmation of the effect of the daurinol compound of the present invention on the treatment of inflammatory bowel disease, the present inventors first constructed an animal model with induced inflammatory bowel disease. For the experimental model, C57BL/6(H-2kb) mice were used. For the construction of an animal model with induced inflammatory bowel disease, the mice were fed with 3.5% dextran sulfate sodium (DSS) and water for a week, thereby preparing an animal model with induced inflammatory bowel disease.
The present inventors divided the experimental animals into a normal control group, a group of an animal model with induced inflammatory bowel disease, and a group of an animal model with induced inflammatory bowel disease treated with daurinol or a TNF-α inhibitor, and the group treated with daurinol was administered orally and intrarectally with daurinol (20 mg/kg) from the 4th day after the induction with the disease.
Sera were isolated from a mouse with induced inflammatory bowel disease (IBD), and mice treated with daurinol and TNF-α inhibitor, respectively. The levels of IL-17, IFNγ, IL-6, and the like, which are inflammatory cytokines, in the isolated sera were measured by ELISA assay.
Accordingly, since daurinol can reduce not only the expression of the inflammatory cytokines but also the formation of antibodies in an animal model with inflammatory bowel disease, daurinol can inhibit and control the immune response to autoantibodies and the B cell-related inflammation responses.

[2] = system: animal model with induced inflammatory bowel disease; experiment: Weight, disease activity index and length of intestine in animal model with inflammatory bowel disease; type: in vivo, mouse
Description: For the confirmation of the effect of the daurinol compound of the present invention on the treatment of inflammatory bowel disease, the present inventors first constructed an animal model with induced inflammatory bowel disease. For the experimental model, C57BL/6(H-2kb) mice were used. For the construction of an animal model with induced inflammatory bowel disease, the mice were fed with 3.5% dextran sulfate sodium (DSS) and water for a week, thereby preparing an animal model with induced inflammatory bowel disease. The present inventors divided the experimental animals into a normal control group, a group of an animal model with induced inflammatory bowel disease, and a group of an animal model with induced inflammatory bowel disease treated with daurinol or a TNF-α inhibitor, and the group treated with daurinol was administered orally and intrarectally with daurinol (20 mg/kg) from the 4th day after the induction with the disease. […] Additionally, one of the features of inflammatory bowel disease is that the damage and shortening of the length of the large intestine are related to the disease activity index. For the analysis of the therapeutic effect of daurinol on the inflammatory bowel disease, the experimental animals were euthanased two weeks after the daurinol treatment, and the length of their intestines were measured.

[3] = system: animal model with inflammatory bowel disease (IBD); experiment: H&E staining and TNF-α expression of large intestine tissues in IBD animal model; type: in vivo, mouse; details: DSS-induced IBD mice, daurinol treated
Description: For the confirmation of the effect of the daurinol compound of the present invention on the treatment of inflammatory bowel disease, the present inventors first constructed an animal model with induced inflammatory bowel disease. For the experimental model, C57BL/6(H-2kb) mice were used. For the construction of an animal model with induced inflammatory bowel disease, the mice were fed with 3.5% dextran sulfate sodium (DSS) and water for a week, thereby preparing an animal model with induced inflammatory bowel disease. The present inventors divided the experimental animals into a normal control group, a group of an animal model with induced inflammatory bowel disease, and a group of an animal model with induced inflammatory bowel disease treated with daurinol or a TNF-α inhibitor, and the group treated with daurinol was administered orally and intrarectally with daurinol (20 mg/kg) from the 4th day after the induction with the disease. Additionally, for the confirmation of the histological findings of the tissues in the large intestine and the expression of inflammatory cytokines, a hematoxylin and eosin (H&E) staining was performed to examine whether the damage of the tissues in the large intestine was reduced by the daurinol treatment.

[4] = system: splenocytes cell line; experiment: MTT assay for cytotoxicity; type: cell-based; details: splenocytes cell line 2×10^5 cells, 96-well plate
Method: Additionally, MTT assay was performed for the observation of cytotoxicity by daurinol treatment. To this end, splenocytes cell line (2×10^5 cells) were plated on a 96-well plate, and daurinol was treated with MTT reagent and wrapped with aluminum foil, and reacted at 37° C. for 4 hours. After 4 hours, the crystals formed were dissolved in DMSO and the absorbance was measured using the ELISA reader.

[5] = system: VEGF; experiment: VEGF expression in human large intestine cell line HT-29; type: cell-based
[6] = system: animal model with a collagen induced arthritis (CIA); experiment: Evaluation of arthritis index in animal model with collagen induced arthritis; type: in vivo, mouse; details: CIA DBA/1J mice, daurinol 20 mg/kg intravenously, total of 9 times, observed until 7th week
[7] = system: animal model with collagen induced arthritis (CIA); experiment: Expression of inflammatory cytokines in joints of CIA animals (tissue staining); type: in vivo, mouse; details: injected intravenously, three weeks after
[8] = system: splenocytes of an animal model with lupus; experiment: IgG antibody formation in splenocytes of animal model with lupus (ELISA); type: cell-based; details: daurinol 1 μM and 5 μM, LPS 100 ng/mL, three days
Method: First, regarding the effect of controlling the autoantibody formation, the splenocytes of an animal model with lupus were treated with daurinol (1 μM and 5 μM) and LPS (100 ng/mL) for three days and the levels of IgG antibodies expressed thereof were evaluated by ELISA assay.

[9] = system: splenocyte cell line; experiment: IL-17 secretion of anti-CD3 treated splenocyte cell line (sandwich ELISA); type: cell-based; details: anti-CD3 antibodies 0.5 μg/mL
Method: For this purpose, a splenocyte cell line was treated with anti-CD3 antibodies (0.5 μg/mL) to induce the secretion of IL-17, or treated with LPS (100 ng/mL) to induce the secretion of TNF-α. […] The resultant was reacted in a 96-well plate with monoclonal anti-IL-17 or anti-TNF-α (2 μg/mL) at 4° C. overnight, and upon reaction, the non-specific binding was blocked using a blocking solution (1% BSA/PBST). IL-17 recombinant or TNF-α in a half amount was continuously diluted and used as standards, and the supernatant of cell culture was reacted at room temperature for 2 hours. Then, the biotinylated anti-IL-17 was reacted at room temperature for 2 hours, washed 4 times, and added with ExtraAvidin-alkaline phosphatase conjugate after dilution, and reacted at room temperature for 2 hours. Subsequently, PNPP/DEA solution was added thereto to fix color and absorbance was measured at 405 nm.

COc1cc2c(-c3ccc4c(c3)OCO4)c3c(cc2cc1O)COC3=O [daurinol] was tested, and the “level of IgG1 antibodies in sera” value [1] was “reduced the levels”, the “level of IgG2 antibodies in sera” value [1] was “reduced the levels” and the “level of IgG3 antibodies in sera” value [1] was “reduced the levels”. The “level of IgG antibodies in sera” value [1] was “reduced the levels”, the “disease activity index (DAI)” value ([2]; DSS-induced IBD C57BL/6 mice, daurinol 20 mg/kg orally and intrarectally from 4th day) was “significant decrease” and the weight ([2]; DSS-induced IBD C57BL/6 mice, daurinol 20 mg/kg orally and intrarectally from 4th day, vs IBD group) was “significant improvement in weight”. For the same compound, the “length of the intestine” value ([2]; DSS-induced IBD mice, two weeks after the daurinol treatment, vs IBD group) was “significant increase in the length of the intestine”, the “damage of the tissues in the large intestine (H&E staining)” value [3] was “decrease in the intestinal tissue damage” and the “expression of TNF-α in large intestine tissues” value [3] was “significantly inhibits”. The “cytotoxicity according to the concentration of daurinol (MTT)” value [4] was “no significant cytotoxicity”, the “activity of VEGF, analysis in terms of inhibition (%)” value [5] was “significantly inhibits the activity of VEGF” and the “inhibitory effect against the VEGF expression, compared to comparators” value [5] was “greater inhibitory effect against the VEGF expression compared to those of TNF-α inhibitor and merformin”. For the same compound, the arthritis index [6] was “almost no increase in arthritis index”, the “expression level of IL-1beta in joints” value [7] was “significantly reduced” and the “expression level of IL-6 in joints” value [7] was “significantly reduced”. The “expression level of IL-17 in joints” value [7] was “significantly reduced”, the “expression level of TNF-α in joints” value [7] was “significantly reduced” and the “formation of IgG antibodies (ELISA)” value [8] was “inhibited the formation of IgG antibodies in a dose-dependent manner”. The “secretion of IL-17 decreased to” value ([9]; 2 μM daurinol) was 50% and the “secretion of IL-17” value ([9]; 20 μM daurinol) was “no secretion was observed”.
